Test results reported in US8026365B2, “4,4-disubstituted piperidine derivatives” (Hoffman-La Roche Inc., priority 2007, dated 2011).

Molecular target: T1, human subtype 5 somatostatin receptor (SSTR5) (Homo sapiens, UniProt P35346)
T1 construct: host or cells: CHO cell line, stably transfected; membranes prepared by sonication and centrifugation
Assay: radioligand replacement (binding) assay, 125I-labeled 11-Tyr somatostatin-14, membranes of CHO cells expressing SSTR5
Conditions: membranes of CHO cells stably transfected with human SSTR5; 0.05 nM 125I tracer; Ki calculated from IC50 by Cheng-Prussoff equation
Experimental: A CHO cell line stably transfected with a plasmid encoding the human subtype 5 somatostatin receptor (GenBank accession number D16827) was obtained from Euroscreen. Cells were cultured and used for binding and functional assays.
Membranes of these cells were prepared by sonication in the presence of protease inhibitors and subsequent fractionating centrifugation. The protein concentration in the membrane preparation was determined using a commercial kit (BCA kit, Pierce, USA). Membranes were stored at −80° C. until use. After thawing membranes were diluted in assay buffer (50 mM Tris-HCl at pH 7.4, 5 mM MgCl2 and 0.20% BSA) and subjected to dounce homogenization.
For binding studies, 0.1 mL membrane suspension, corresponding to approximately 6×10^−15 mol receptor, was incubated for 1 h at room temperature with 0.05 nM ^125I-labeled tracer (11-Tyr somatostatin-14, Perkin-Elmer) and either test compounds in varying concentrations or, for the determination of non-specific binding, 0.001 mM non-labeled somatostatin-14. The incubation was stopped by filtration through GF/B glassfiber filters and washing with ice-cold wash buffer (50 mM Tris-HCl at pH 7.4). The bound radioactivity was measured after application of a scintillation cocktail (Microscint 40) and expressed as disintegrations per minute (dpm).
The receptor concentration was determined in a prior saturation experiment where a fixed, arbitrary amount of membranes was incubated with a concentration range of radio-labeled tracer. This allows estimating the total number of specific binding sites per amount of protein (i.e., Bmax), typically between 1 and 5 pmol/mg.
The concentration of the test compound required to result in half maximal inhibition of binding of the radio-labeled tracer (IC50) was estimated from a concentration-versus-dpm graph. The binding affinity (Ki) was calculated from the IC50 by applying the Cheng-Prussoff equation for single binding sites.

T1 sequence (P35346 whole entry): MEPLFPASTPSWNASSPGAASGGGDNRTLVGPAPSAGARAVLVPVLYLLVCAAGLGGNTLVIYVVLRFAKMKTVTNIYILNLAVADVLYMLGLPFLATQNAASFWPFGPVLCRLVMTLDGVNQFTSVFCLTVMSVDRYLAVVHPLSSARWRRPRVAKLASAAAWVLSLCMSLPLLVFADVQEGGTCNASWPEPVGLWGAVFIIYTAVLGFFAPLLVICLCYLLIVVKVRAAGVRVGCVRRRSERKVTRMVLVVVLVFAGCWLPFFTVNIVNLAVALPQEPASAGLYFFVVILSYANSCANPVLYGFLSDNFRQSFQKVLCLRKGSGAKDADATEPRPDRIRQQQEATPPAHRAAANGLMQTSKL

For `CCOc1cc(CN2CCC3(CC2)NC(=O)NC3=O)ccc1Cl` [Example 2, 8-(4-chloro-3-ethoxy-benzyl)-1,3,8-triaza-spiro[4.5]decane-2,4-dione], which Ki is on record?
Its Ki is 0.051 µM.

How did the Ki turn out when `CCOc1cc(CN2CCC3(CC2)NC(=O)NC3=O)cc(OCC)c1Cl` [Example 5, 8-(4-chloro-3,5-diethoxy-benzyl)-1,3,8-triaza-spiro[4.5]decane-2,4-dione] was run?
Its Ki is 0.042 µM.

With `CCOc1cc(CN2CCC3(CC2)NC(=O)NC3=O)cc(OCC)c1-n1cccc1` [Example 7, 8-(3,5-diethoxy-4-pyrrol-1-yl-benzyl)-1,3,8-triaza-spiro[4.5]decane-2,4-dione] as the molecule, how does the Ki read?
Its Ki is 0.015 µM.

With `CCOc1cc(CN2CCC3(CC2)CCN(c2ccccc2)C3=O)cc(OCC)c1Cl` [Example 11, 8-(4-chloro-3,5-diethoxy-benzyl)-2-phenyl-2,8-diaza-spiro[4.5]decan-1-one] as the molecule, how does the Ki read?
The Ki was 0.228 µM.

`CCOc1cc(CN2CCC3(CC2)N=C(c2ccccc2)NC3=O)ccc1C` [Example 15, 8-(3-ethoxy-4-methyl-benzyl)-2-phenyl-1,3,8-triaza-spiro[4.5]dec-1-en-4-one] was tested. Which Ki did it give?
Its Ki is 0.037 µM.

How did the Ki turn out when `CCOc1cc(CN2CCC3(CC2)N=C(c2ccccc2)NC3=O)ccc1Cl` [Example 17, 8-(4-chloro-3-ethoxy-benzyl)-2-phenyl-1,3,8-triaza-spiro[4.5]dec-1-en-4-one] was run?
The Ki was 0.05 µM.

Which Ki does the source give for `CCOc1cc(CN2CCC3(CC2)N=C(c2ccccc2)NC3=O)ccc1OC(F)F` [Example 26, 8-(4-difluoromethoxy-3-ethoxy-benzyl)-2-phenyl-1,3,8-triaza-spiro[4.5]dec-1-en-4-one] here?
Its Ki is 0.226 µM.

How did the Ki turn out when `COc1ccc(CN2CCC3(CC2)N=C(c2ccccc2)NC3=O)cc1OCCF` [Example 29, 8-[3-(2-fluoro-ethoxy)-4-methoxy-benzyl]-2-phenyl-1,3,8-triaza-spiro[4.5]dec-1-en-4-one] was run?
The Ki was 0.717 µM.

For `COc1ccc(CN2CCC3(CC2)N=C(c2ccccc2)NC3=O)cc1OC1CCCC1` [Example 33, 8-(3-cyclopentyloxy-4-methoxy-benzyl)-2-phenyl-1,3,8-triaza-spiro[4.5]dec-1-en-4-one], which Ki is on record?
The Ki was 0.273 µM.

With `CCOc1cc(CN2CCC3(CC2)N=C(c2ccccc2)NC3=O)cc(OCC)c1Br` [Example 38, 8-(4-bromo-3,5-diethoxy-benzyl)-2-phenyl-1,3,8-triaza-spiro[4.5]dec-1-en-4-one] as the molecule, how does the Ki read?
The Ki was 0.018 µM.

How did the Ki turn out when `CCOc1cc(CN2CCC(NC(=O)c3ccc(Cl)cc3)(C(N)=O)CC2)cc(OCC)c1Cl` [Example 42, 4-(4-chloro-benzoylamino)-1-(4-chloro-3,5-diethoxy-benzyl)-piperidine-4-carboxylic acid amide] was run?
The Ki was 0.096 µM.

How did the Ki turn out when `CCOc1cc(CN2CCC(C#N)(NC(=O)c3cncc(C)c3)CC2)cc(OCC)c1F` [Example 44, N-[4-cyano-1-(3,5-diethoxy-4-fluoro-benzyl)-piperidin-4-yl]-5-methyl-nicotinamide] was run?
The Ki was 0.342 µM.

Which Ki does the source give for `CCOc1cc(CN2CCC(C#N)(NC(=O)c3ccc(Cl)nc3)CC2)cc(OCC)c1-c1ccc(F)cc1` [Example 46, 6-chloro-N-[4-cyano-1-(2,6-diethoxy-4′-fluoro-biphenyl-4-ylmethyl)-piperidin-4-yl]-nicotinamide] here?
The Ki was 0.066 µM.
